This is an account of results in paper PMC8213057, “Targeting ALK2: An Open Science Approach to Developing Therapeutics for the Treatment of Diffuse Intrinsic Pontine Glioma” (Journal of Medicinal Chemistry, 2020).

The target in one test is SSTK/TSSK6 (Homo sapiens, UniProt Q9BXA6). The test is described as follows: biochemical. The settings on record: read-out: % enzyme activity, 1 μM; Run 1, Run 2.
The next test concerns the target TTBK1 (Homo sapiens, UniProt Q5TCY1). Particulars: 1 μM; Run 1, Run 2.
In another test the target is GRK5 (Homo sapiens, UniProt P34947). The test is described as follows: biochemical. The settings on record: read-out: % enzyme activity, 1 μM; Run 1, Run 2.
The target in another test is c-Src (Homo sapiens, UniProt P12931). The test is described as follows: biochemical. The settings on record: read-out: % enzyme activity, 1 μM; Run 1, Run 2.
c-Src, sequence (P12931 whole entry): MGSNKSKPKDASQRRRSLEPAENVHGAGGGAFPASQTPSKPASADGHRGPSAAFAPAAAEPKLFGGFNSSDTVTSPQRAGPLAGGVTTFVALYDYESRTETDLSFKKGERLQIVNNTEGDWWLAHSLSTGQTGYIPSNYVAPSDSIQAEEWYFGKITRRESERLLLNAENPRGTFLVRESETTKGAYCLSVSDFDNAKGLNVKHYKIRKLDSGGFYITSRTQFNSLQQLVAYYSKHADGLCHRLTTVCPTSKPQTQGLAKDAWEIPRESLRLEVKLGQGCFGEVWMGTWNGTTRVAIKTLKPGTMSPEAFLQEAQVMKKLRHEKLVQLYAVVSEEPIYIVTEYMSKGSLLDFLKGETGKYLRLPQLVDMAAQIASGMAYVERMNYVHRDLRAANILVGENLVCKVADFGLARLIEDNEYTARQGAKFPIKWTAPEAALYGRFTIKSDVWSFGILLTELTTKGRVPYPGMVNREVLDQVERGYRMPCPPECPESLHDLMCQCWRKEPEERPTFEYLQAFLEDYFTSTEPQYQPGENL
A further test concerns the target IRR/INSRR (Homo sapiens, UniProt P14616). The settings on record: 1 μM; Run 1, Run 2.
A further test addresses FGFR3 (Homo sapiens, UniProt P22607). Particulars: 1 μM; Run 1, Run 2.
The target in the next test is CLK2 (Homo sapiens, UniProt P49760). Put plainly: biochemical. Particulars: read-out: % enzyme activity, 1 μM; Run 1, Run 2.
CLK2, sequence (P49760 whole entry): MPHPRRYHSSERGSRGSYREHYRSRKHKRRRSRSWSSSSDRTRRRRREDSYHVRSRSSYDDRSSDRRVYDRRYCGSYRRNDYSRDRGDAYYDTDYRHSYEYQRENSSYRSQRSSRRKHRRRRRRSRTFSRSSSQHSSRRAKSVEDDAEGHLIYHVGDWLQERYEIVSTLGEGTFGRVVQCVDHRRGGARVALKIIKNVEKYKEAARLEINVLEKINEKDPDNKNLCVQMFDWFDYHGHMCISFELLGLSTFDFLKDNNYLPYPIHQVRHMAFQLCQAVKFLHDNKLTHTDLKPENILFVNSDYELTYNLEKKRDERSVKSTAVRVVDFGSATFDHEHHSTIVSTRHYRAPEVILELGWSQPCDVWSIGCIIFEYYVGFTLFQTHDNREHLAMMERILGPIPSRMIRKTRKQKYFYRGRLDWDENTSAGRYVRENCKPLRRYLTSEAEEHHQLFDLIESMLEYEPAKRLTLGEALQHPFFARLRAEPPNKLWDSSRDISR
For a further test, the target named is T1, ARK5/NUAK1 (Homo sapiens, UniProt O60285).
T1 sequence (O60285 1-661): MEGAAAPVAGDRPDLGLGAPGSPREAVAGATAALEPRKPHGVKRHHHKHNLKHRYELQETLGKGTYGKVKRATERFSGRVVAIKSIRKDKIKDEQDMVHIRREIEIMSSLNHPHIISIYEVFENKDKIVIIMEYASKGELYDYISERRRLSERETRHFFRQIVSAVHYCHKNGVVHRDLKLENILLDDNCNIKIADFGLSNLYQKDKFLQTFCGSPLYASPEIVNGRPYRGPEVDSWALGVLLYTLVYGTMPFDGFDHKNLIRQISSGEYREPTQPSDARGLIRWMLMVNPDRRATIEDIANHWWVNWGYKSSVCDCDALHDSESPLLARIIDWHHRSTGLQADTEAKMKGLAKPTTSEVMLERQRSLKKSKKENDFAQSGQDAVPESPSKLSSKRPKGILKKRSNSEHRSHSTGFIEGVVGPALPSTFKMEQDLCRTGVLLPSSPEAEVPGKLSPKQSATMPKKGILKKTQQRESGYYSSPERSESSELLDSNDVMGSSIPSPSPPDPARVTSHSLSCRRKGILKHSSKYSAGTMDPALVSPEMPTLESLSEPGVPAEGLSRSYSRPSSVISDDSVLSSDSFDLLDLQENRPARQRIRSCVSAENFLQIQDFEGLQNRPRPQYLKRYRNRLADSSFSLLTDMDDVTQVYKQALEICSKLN
The test is described as follows: biochemical. The settings on record: read-out: % enzyme activity, 1 μM; Run 1, Run 2.

For a further test, the target named is PKCb1 (Homo sapiens, UniProt P05771). The settings on record: 1 μM; Run 1, Run 2.
For a further test, the target named is MST4 (Homo sapiens, UniProt Q9P289). The settings on record: 1 μM; Run 1, Run 2.
MST4, sequence (Q9P289 whole entry): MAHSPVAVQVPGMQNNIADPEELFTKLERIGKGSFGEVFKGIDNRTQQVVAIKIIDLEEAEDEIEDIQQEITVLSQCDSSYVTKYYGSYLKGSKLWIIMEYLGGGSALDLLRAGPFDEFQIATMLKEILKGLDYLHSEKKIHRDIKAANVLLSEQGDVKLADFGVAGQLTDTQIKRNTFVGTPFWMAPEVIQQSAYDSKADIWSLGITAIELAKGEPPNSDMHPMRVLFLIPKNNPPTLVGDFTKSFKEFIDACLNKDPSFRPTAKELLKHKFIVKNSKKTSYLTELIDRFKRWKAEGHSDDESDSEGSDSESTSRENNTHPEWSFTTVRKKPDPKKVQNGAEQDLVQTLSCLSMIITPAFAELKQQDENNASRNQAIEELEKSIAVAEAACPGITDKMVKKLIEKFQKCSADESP
The next test deals with T2, CTK/MATK (Homo sapiens, UniProt P42679).
T2 sequence (P42679 1-507): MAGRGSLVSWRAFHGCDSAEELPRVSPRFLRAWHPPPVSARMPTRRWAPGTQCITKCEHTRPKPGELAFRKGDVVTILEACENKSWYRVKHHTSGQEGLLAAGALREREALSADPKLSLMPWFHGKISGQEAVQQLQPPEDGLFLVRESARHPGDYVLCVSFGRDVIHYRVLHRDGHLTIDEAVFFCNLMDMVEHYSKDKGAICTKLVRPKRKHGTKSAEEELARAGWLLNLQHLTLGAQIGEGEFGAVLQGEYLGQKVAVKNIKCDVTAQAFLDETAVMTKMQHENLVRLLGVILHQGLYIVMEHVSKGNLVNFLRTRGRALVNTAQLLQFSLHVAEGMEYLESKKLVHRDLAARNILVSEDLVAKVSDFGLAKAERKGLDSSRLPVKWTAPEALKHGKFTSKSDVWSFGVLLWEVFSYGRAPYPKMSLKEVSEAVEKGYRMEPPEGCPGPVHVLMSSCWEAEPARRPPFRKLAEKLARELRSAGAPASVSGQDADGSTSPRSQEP
Particulars: 1 μM; Run 1, Run 2.

The target in the next test is ALK (Homo sapiens, UniProt Q9UM73). The settings on record: 1 μM; Run 1, Run 2.
ALK, sequence (Q9UM73 19-1620): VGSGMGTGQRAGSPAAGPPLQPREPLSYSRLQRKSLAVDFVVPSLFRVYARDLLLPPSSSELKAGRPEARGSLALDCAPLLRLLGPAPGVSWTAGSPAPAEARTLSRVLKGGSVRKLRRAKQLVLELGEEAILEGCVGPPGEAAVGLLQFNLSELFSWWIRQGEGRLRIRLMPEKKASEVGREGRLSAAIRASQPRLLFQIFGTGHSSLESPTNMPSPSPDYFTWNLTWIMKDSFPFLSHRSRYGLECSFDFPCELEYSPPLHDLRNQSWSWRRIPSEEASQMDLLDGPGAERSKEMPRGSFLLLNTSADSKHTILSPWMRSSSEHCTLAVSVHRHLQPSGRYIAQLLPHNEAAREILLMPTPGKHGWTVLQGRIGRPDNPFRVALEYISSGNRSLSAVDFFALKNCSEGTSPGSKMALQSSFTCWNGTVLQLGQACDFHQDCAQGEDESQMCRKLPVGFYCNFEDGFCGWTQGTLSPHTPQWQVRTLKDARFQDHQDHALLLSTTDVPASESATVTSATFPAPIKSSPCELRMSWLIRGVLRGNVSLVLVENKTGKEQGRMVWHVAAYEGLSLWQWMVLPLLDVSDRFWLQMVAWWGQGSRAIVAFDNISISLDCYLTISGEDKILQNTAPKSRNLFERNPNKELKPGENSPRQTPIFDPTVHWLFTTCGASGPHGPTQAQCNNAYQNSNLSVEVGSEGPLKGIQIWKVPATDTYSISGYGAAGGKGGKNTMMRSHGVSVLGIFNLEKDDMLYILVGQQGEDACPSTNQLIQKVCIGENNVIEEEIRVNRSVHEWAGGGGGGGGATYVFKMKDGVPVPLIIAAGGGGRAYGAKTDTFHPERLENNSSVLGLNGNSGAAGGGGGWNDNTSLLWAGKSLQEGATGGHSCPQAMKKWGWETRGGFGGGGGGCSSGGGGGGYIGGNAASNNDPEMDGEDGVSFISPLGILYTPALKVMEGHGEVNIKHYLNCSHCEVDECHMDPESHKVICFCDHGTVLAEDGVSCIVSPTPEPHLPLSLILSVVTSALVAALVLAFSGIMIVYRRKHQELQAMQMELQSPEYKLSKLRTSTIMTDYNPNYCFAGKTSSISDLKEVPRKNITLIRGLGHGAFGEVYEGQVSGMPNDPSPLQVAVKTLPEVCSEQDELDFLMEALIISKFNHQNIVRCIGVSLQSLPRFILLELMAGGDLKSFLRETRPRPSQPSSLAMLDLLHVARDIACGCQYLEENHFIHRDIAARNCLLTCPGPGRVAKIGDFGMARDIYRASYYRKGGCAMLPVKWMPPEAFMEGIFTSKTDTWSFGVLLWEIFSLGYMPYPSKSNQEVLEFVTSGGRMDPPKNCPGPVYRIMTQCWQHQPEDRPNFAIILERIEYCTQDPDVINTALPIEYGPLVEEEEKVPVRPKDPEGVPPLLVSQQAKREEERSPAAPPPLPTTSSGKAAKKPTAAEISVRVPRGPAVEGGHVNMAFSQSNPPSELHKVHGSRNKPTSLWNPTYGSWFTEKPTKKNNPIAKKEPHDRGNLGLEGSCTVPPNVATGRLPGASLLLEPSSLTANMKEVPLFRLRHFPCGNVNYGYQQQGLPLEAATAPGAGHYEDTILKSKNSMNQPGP
A further test has as its target MNK2 (Homo sapiens, UniProt Q9HBH9). Put plainly: biochemical. Particulars: read-out: % enzyme activity, 1 μM; Run 1, Run 2.
A further test concerns the target CK1epsilon (Homo sapiens, UniProt P49674). Particulars: 1 μM; Run 1, Run 2.
Another test concerns the target T3, ALK6/BMPR1B (Homo sapiens, UniProt O00238).
T3 construct: purchased Reaction Biology Corporation
Put plainly: 375-member kinase panel. The format is biochemical. Particulars: Run 1, Run 2; for % enzyme activity: 1 μM; for remaining activity at 1 µM: read-out: % enzyme activity, 1 μM.

The target of a further test is LYN (Homo sapiens, UniProt P07948). Particulars: 1 μM; Run 1, Run 2.
LYN, sequence (P07948 whole entry): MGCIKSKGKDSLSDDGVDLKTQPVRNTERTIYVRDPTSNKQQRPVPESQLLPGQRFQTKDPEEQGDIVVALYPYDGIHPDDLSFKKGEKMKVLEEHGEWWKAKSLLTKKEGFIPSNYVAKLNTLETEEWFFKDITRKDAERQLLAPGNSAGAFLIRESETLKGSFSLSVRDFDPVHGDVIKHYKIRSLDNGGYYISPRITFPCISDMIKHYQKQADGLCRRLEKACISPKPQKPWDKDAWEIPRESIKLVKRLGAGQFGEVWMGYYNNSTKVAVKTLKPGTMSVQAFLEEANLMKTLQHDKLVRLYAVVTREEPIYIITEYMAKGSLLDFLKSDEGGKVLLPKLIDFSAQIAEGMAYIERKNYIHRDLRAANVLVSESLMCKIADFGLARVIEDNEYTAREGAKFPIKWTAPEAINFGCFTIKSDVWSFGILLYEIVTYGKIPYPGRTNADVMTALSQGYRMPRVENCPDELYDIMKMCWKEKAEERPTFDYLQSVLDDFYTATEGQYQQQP
In another test the target is PAK5 (Homo sapiens, UniProt Q9P286). Put plainly: biochemical. The settings on record: read-out: % enzyme activity, 1 μM; Run 1, Run 2.
A further test has as its target HIPK3 (Homo sapiens, UniProt Q9H422). Particulars: 1 μM; Run 1, Run 2.
In a further test the target is T4, GRK1 (Homo sapiens, UniProt Q15835).
T4 sequence (Q15835 1-563): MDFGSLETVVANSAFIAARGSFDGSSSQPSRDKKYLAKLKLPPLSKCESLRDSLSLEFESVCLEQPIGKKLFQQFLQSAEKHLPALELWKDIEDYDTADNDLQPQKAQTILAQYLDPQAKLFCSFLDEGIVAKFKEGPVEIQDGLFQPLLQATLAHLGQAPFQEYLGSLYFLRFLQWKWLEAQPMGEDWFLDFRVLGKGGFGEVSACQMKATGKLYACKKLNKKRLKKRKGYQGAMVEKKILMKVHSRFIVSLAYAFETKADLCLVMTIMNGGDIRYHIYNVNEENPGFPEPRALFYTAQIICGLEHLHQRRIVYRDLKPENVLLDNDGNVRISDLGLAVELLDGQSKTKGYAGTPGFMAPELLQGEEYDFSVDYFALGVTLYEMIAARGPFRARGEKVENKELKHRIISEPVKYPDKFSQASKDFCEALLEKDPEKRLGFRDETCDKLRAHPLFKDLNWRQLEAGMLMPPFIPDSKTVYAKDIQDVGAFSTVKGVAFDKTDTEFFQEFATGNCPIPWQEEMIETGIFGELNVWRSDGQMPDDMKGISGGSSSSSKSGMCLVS
The settings on record: 1 μM; Run 1, Run 2.

A further test addresses PAK2 (Homo sapiens, UniProt Q13177). The test is described as follows: biochemical. Particulars: read-out: % enzyme activity, 1 μM; Run 1, Run 2.

Several values for one entry are separate records, joined by “and”; a condition that tells them apart may be missing. Equal entries are not always repeated.

T3 sequence (O00238 14-502): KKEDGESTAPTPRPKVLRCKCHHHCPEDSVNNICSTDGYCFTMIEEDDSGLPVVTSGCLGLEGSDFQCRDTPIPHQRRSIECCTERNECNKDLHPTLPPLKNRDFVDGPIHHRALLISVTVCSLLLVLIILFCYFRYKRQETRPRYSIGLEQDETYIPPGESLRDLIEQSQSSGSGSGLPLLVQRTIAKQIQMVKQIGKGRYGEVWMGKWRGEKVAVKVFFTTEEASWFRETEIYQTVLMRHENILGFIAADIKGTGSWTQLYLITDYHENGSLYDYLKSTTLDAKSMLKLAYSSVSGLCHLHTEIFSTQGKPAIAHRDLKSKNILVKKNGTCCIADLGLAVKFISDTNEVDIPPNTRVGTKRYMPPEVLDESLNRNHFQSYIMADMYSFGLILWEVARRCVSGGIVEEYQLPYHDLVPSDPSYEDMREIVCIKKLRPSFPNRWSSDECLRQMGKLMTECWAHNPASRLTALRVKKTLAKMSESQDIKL
FGFR3, sequence (P22607 23-806): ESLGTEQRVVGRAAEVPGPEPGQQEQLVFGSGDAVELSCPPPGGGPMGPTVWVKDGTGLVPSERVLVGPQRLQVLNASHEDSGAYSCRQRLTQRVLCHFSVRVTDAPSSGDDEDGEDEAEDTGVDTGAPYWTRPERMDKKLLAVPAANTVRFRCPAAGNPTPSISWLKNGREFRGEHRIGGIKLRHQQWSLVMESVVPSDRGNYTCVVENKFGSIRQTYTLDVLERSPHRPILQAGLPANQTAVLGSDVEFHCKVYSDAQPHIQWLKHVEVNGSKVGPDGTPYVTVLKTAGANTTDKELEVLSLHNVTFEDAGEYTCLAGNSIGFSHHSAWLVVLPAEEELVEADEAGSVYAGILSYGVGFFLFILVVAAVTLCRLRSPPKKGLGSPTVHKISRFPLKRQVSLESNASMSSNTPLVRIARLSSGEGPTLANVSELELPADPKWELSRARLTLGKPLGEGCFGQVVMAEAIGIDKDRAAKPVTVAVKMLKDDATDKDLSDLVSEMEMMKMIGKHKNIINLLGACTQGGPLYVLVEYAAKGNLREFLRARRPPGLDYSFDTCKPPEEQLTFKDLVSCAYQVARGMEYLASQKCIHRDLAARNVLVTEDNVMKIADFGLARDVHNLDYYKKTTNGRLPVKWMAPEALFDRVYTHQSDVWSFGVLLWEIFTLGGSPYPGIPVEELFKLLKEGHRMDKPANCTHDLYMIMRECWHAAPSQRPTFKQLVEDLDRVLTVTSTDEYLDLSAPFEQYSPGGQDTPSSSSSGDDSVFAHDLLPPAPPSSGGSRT

`COc1cc(-c2cncc(-c3ccc(N4CCN(C)CC4)cc3)c2C)cc(F)c1C(N)=O` [Compound 26a, 2-Fluoro-6-methoxy-4-(4-methyl-5-(4-(4-methylpiperazin-1-yl)phenyl)pyridin-3-yl)benzamide]: the remaining activity at 1 µM on SSTK/TSSK6 is 110%; at GRK5, 104%; at c-Src, 96.6%; at CLK2, 91.7%; on ARK5/NUAK1 it was 97.6%; at MNK2 it was 48.2%. For the same compound, the remaining activity at 1 µM was determined as 18.2% at ALK6/BMPR1B, 94.6% on PAK5 and 101% on PAK2. The “% enzyme activity” value worked out at 96.78% at TTBK1; 99.85% on IRR/INSRR; 100.98% on FGFR3; 82.63% on PKCb1; 85.32% on MST4; 94.85% at CTK/MATK. Besides, the “% enzyme activity” value is recorded as 99.31% on ALK; 93.07% on CK1epsilon; 17.03% at ALK6/BMPR1B; 79.23% on LYN; 97.73% at HIPK3; 93.15% at GRK1. For the same compound, in the test on SIK2, the % enzyme activity at 1 μM was 32% and 30.7%.

As to `COc1cc(-c2cncc(-c3ccc(N4C[C@@H](C)N(C)[C@@H](C)C4)cc3)c2C)cc(F)c1C(N)=O` [Compound 26c, 2-Fluoro-6-methoxy-4-(4-methyl-5-(4-((3R,5S)-3,4,5-trimethylpiperazin-1-yl)phenyl)pyridin-3-yl)benzamide], the remaining activity at 1 µM at SSTK/TSSK6 turned out to be 98.2%; on GRK5 it was 93.1%; on c-Src, 100%; at CLK2 it was 90.3%; on ARK5/NUAK1, 96%; at MNK2, 70.8%. The remaining activity at 1 µM at ALK6/BMPR1B is 30.2%; at PAK5, 97.3%; on PAK2, 104%. Further, the “% enzyme activity” value on TTBK1 came to 98.52%; on IRR/INSRR it was 113.76%; at FGFR3 it was 102.08%; at PKCb1 it was 83.58%; on MST4, 90.97%; on CTK/MATK it was 98.62%. The “% enzyme activity” value at ALK was 96.51%; on CK1epsilon it was 90.08%; on ALK6/BMPR1B, 30.06%; at LYN it was 88.67%; on HIPK3, 89.08%; on GRK1 it was 94.01%. Also, in the test with SIK2, the % enzyme activity at 1 μM is 43.9% and 43.5%.
